Tests used:
[1] = system: oval-leafed pondweed; assay: Test Example 1: herbicidal activity, application before weed generation under submerged conditions (Table 16, symbol C); type: in vivo, oval-leafed pondweed (Monochoria vaginalis); conditions: amount of applied herbicide 320 g/ha
How it was run: (§1)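 Submerged Wagner pots (alluvial soil, 4 cm water) sown with weed seeds and planted with 2.5-leaf rice seedlings; emulsifiable concentrate diluted in water applied to water surface on sowing day. Held in greenhouse at 25-30 °C; injury scored 0-5 by herbicidal rate after three weeks.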

[2] = system: persian speedwell; assay: Test Example 4: herbicidal effect by soil treatment (Table 19, symbol R); type: in vivo, Persian speedwell (Veronica persica); conditions: amount of applied herbicide 320 g/ha
How it was run: (§2)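 Pre-emergence style soil spray: seeds under ~1.5 cm sterilized diluvial soil received a uniform coat of emulsion diluted to the predetermined herbicide amount. Greenhouse 25–30° C; readout at week three on previously defined criteria.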

[3] = system: persian speedwell; assay: Test Example 5: herbicidal effect by foliage application, plastic box (Table 20, symbol R); type: in vivo, Persian speedwell (Veronica persica); conditions: foliage application, 320 g/ha, three weeks after application
How it was run: (§3)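 Plants were sown into sterilized diluvial soil under about 1.5 cm cover and kept in a greenhouse at 25° C. to 30° C. Fourteen days on, foliage received an even spray of the diluted emulsion. Herbicidal or crop effect was judged three weeks afterwards.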

[4] = system: lambsquarters; assay: Test Example 4: herbicidal effect by soil treatment (Table 19, symbol O); type: in vivo, lambsquarters (Chenopodium album); conditions: amount of applied herbicide 320 g/ha
How it was run: as §2

[5] = system: blackgrass; assay: Test Example 5: herbicidal effect by foliage application, plastic box (Table 20, symbol J); type: in vivo, blackgrass (Alopecurus myosuroides); conditions: foliage application, 320 g/ha, three weeks after application
How it was run: as §3

[6] = system: barnyard grass; assay: Test Example 4: herbicidal effect by soil treatment (Table 19, symbol H); type: in vivo, barnyard grass (Echinochloa crus-galli); conditions: amount of applied herbicide 320 g/ha
How it was run: as §2

[7] = system: wild oat; assay: Test Example 4: herbicidal effect by soil treatment (Table 19, symbol I); type: in vivo, wild oat (Avena fatua); conditions: amount of applied herbicide 320 g/ha
How it was run: as §2

[8] = system: Italian ryegrass; assay: Test Example 4: herbicidal effect by soil treatment (Table 19, symbol K); type: in vivo, Italian ryegrass (Lolium multiflorum); conditions: amount of applied herbicide 320 g/ha
How it was run: as §2

[9] = system: blackgrass; assay: Test Example 4: herbicidal effect by soil treatment (Table 19, symbol J); type: in vivo, blackgrass (Alopecurus myosuroides); conditions: amount of applied herbicide 320 g/ha
How it was run: as §2

[10] = system: Italian ryegrass; assay: Test Example 5: herbicidal effect by foliage application, plastic box (Table 20, symbol K); type: in vivo, Italian ryegrass (Lolium multiflorum); conditions: foliage application, 320 g/ha, three weeks after application
How it was run: as §3

[11] = system: chickweed; assay: Test Example 5: herbicidal effect by foliage application, plastic box (Table 20, symbol P); type: in vivo, common chickweed (Stellaria media); conditions: foliage application, 320 g/ha, three weeks after application
How it was run: as §3

[12] = system: southern crabgrass; assay: Test Example 5: herbicidal effect by foliage application, plastic box (Table 20, symbol F); type: in vivo, southern crabgrass (Digitaria ciliaris); conditions: foliage application, 320 g/ha, three weeks after application
How it was run: as §3

[13] = system: Japanese bulrush; assay: Test Example 2: herbicidal activity, application during weed generation under submerged conditions (Table 17, symbol B); type: in vivo, Japanese bulrush (Schoenoplectus juncoides); conditions: AAH 320 g/ha; application during weed generation, submerged conditions
How it was run: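 Wagner pot, alluvial soil, 4 cm flood; mixed sowing of all species; greenhouse 25° C.–30° C. Emulsifiable formulation, water-diluted to predetermined dose, applied to paddy water at 1–2 leaf stage. Effect rated at 3 wk using the earlier test's scoring criteria.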

[14] = system: chickweed; assay: Test Example 4: herbicidal effect by soil treatment (Table 19, symbol P); type: in vivo, common chickweed (Stellaria media); conditions: amount of applied herbicide 320 g/ha
How it was run: as §2

[15] = system: rice flat sedge; assay: Test Example 3: herbicidal effect by foliage application, Wagner pot (Table 18, symbol E); type: in vivo, rice flat sedge (Cyperus iria)
How it was run: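 Plants were sown in alluvial soil held under 0.1–0.5 cm standing water and grown 14 days in a greenhouse at 25–30 °C. An emulsifiable formulation, water-diluted to the set dose, was then sprayed onto the foliage, and effects were scored three weeks later using previously defined criteria.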

[16] = system: Japanese bulrush; assay: Test Example 1: herbicidal activity, application before weed generation under submerged conditions (Table 16, symbol B); type: in vivo, Japanese bulrush (Schoenoplectus juncoides); conditions: amount of applied herbicide 320 g/ha
How it was run: as §1

[17] = system: southern crabgrass; assay: Test Example 4: herbicidal effect by soil treatment (Table 19, symbol F); type: in vivo, southern crabgrass (Digitaria ciliaris); conditions: amount of applied herbicide 320 g/ha
How it was run: as §2

Structure (SMILES)	Herbicidal effect, C: oval-leafed pondweed [1]	R: persian speedwell, herbicidal effect grade [2]	O: lambsquarters, herbicidal effect grade [4]	H: barnyard grass, herbicidal effect grade [6]	I: wild oat, herbicidal effect grade [7]	K: Italian ryegrass, herbicidal effect grade [8]	J: blackgrass, herbicidal effect grade [9]	herbicidal effect rating, B: Japanese bulrush [13]	P: chickweed, herbicidal effect grade [14]	Herbicidal effect, B: Japanese bulrush [16]	also measured
CCCC(=O)Oc1c(C)nn(C)c(=O)c1-c1c(-c2ccc(F)cc2OCC)sc2cc(OCC)ccc12 [3-096]	5 (Herbicidal rate of 90% or more (almost completely withered))	5 (Herbicidal rate of 90% or more (almost completely withered))	5 (Herbicidal rate of 90% or more (almost completely withered))	0 (Herbicidal rate of 5% or less (almost no effect))	0 (Herbicidal rate of 5% or less (almost no effect))	2 (Herbicidal rate of 20% or more and less than 40%)	3 (Herbicidal rate of 40% or more and less than 70%)	5 (Herbicidal rate of 90% or more (almost completely withered))	5 (Herbicidal rate of 90% or more (almost completely withered))	5 (Herbicidal rate of 90% or more (almost completely withered))	R: persian speedwell, herbicidal effect grade [3]: 5 (Herbicidal rate of 90% or more (almost completely withered)); J: blackgrass, herbicidal effect grade [5]: 5 (Herbicidal rate of 90% or more (almost completely withered)); K: Italian ryegrass, herbicidal effect grade [10]: 3 (Herbicidal rate of 40% or more and less than 70%); P: chickweed, herbicidal effect grade [11]: 5 (Herbicidal rate of 90% or more (almost completely withered)); F: southern crabgrass, herbicidal effect grade [12]: 5 (Herbicidal rate of 90% or more (almost completely withered)); herbicidal effect on rice flat sedge (E) ([15]; 320 g/ha): 5 (Herbicidal rate of 90% or more (almost completely withered))
CCCOc1ccc(-c2oc3ccc(F)cc3c2-c2c(O)c(C)nn(C)c2=O)cc1 [9-023]	5 (Herbicidal rate of 90% or more (almost completely withered))	4 (Herbicidal rate of 70% or more and less than 90%)	5 (Herbicidal rate of 90% or more (almost completely withered))	5 (Herbicidal rate of 90% or more (almost completely withered))	0 (Herbicidal rate of 5% or less (almost no effect))	5 (Herbicidal rate of 90% or more (almost completely withered))	0 (Herbicidal rate of 5% or less (almost no effect))	3 (Herbicidal rate of 40% or more and less than 70%)	0 (Herbicidal rate of 5% or less (almost no effect))	5 (Herbicidal rate of 90% or more (almost completely withered))	herbicidal effect on persian speedwell (R) [3]: 5 (Herbicidal rate of 90% or more (almost completely withered)); herbicidal effect on blackgrass (J) [5]: 4 (Herbicidal rate of 70% or more and less than 90%); herbicidal effect on Italian ryegrass (K) [10]: 5 (Herbicidal rate of 90% or more (almost completely withered)); F: southern crabgrass, herbicidal effect grade [17]: 4 (Herbicidal rate of 70% or more and less than 90%); herbicidal effect on southern crabgrass (F) [12]: 4 (Herbicidal rate of 70% or more and less than 90%); Herbicidal effect on E (rice flat sedge), foliage application ([15]; amount of applied herbicide 320 g/ha): 5 (Herbicidal rate of 90% or more (almost completely withered))

— patent publication US20230085307A1, “PYRIDAZINONE COMPOUND AND HERBICIDE” (NISSAN CHEMICAL CORPORATION, priority 2019, published 2023)
